# Measured values reported in ChEMBL document CHEMBL1201862, “PubChem BioAssay data set” (2004).
#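 Cultured in 96-well plates, cells were exposed to test compound for 48 hours across five concentrations. At the GI50, growth is halved.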 Calls of active or inactive are those of the source. No stated cut-off is given here; in the data, active = GI50 up to about 1.1 µM and inactive = higher.
# Columns and labels:
# Experiment in all cases: NCI-60 cell line screen, 48 h
# 786-0 = test system: 786-0
# A498 = test system: A498
# A549 = test system: A549
# ACHN = test system: ACHN
# CCRF-CEM = test system: CCRF-CEM
# COLO 205 = test system: COLO 205
# DLD-1 = test system: DLD-1
# DMS-114 = test system: DMS-114
# DMS-273 = test system: DMS-273
# EKVX = test system: EKVX
# HCC 2998 = test system: HCC 2998
# HCT-15 = test system: HCT-15
# HL-60 = test system: HL-60
# HOP-62 = test system: HOP-62
# HOP-92 = test system: HOP-92
# HT-29 = test system: HT-29
# IGROV-1 = test system: IGROV-1
# K562 = test system: K562
# KM12 = test system: KM12
# LOX IMVI = test system: LOX IMVI
# LXFL 529 = test system: LXFL 529
# M14 = test system: M14
# M19-MEL = test system: M19-MEL
# MOLT-4 = test system: MOLT-4
# Malme-3M = test system: Malme-3M
# NCI-H226 = test system: NCI-H226
# NCI-H23 = test system: NCI-H23
# NCI-H460 = test system: NCI-H460
# NCI-H522 = test system: NCI-H522
# OVCAR-3 = test system: OVCAR-3
# OVCAR-4 = test system: OVCAR-4
# OVCAR-5 = test system: OVCAR-5
# OVCAR-8 = test system: OVCAR-8
# RPMI-8226 = test system: RPMI-8226
# RXF 393 = test system: RXF 393
# SF-268 = test system: SF-268
# SF-295 = test system: SF-295
# SF-539 = test system: SF-539
# SK-MEL-28 = test system: SK-MEL-28
# SK-MEL-2 = test system: SK-MEL-2
# SK-MEL-5 = test system: SK-MEL-5
# SK-OV-3 = test system: SK-OV-3
# SN12C = test system: SN12C
# SNB-19 = test system: SNB-19
# SNB-75 = test system: SNB-75
# SNB-78 = test system: SNB-78
# SR = test system: SR
# SW-620 = test system: SW-620
# TK-10 = test system: TK-10
# U-251 = test system: U-251
# UACC-257 = test system: UACC-257
# UACC-62 = test system: UACC-62
# UO-31 = test system: UO-31
# XF498 = test system: XF498
smiles,measurement,setting,value
CCOC(=O)c1oc2ccc(OC)c3c2c1CCC3,GI50,786-0,> 100 µM (inactive)
same,GI50,A498,> 100 µM (inactive)
same,GI50,A549,> 100 µM (inactive)
same,GI50,ACHN,> 100 µM (inactive)
same,GI50,CCRF-CEM,46.7 µM (inactive)
same,GI50,COLO 205,> 100 µM (inactive)
same,GI50,DLD-1,64.9 µM (inactive)
same,GI50,DMS-114,> 100 µM (inactive)
same,GI50,DMS-273,> 100 µM (inactive)
same,GI50,EKVX,> 100 µM (inactive)
same,GI50,HCC 2998,> 100 µM (inactive)
same,GI50,HCT-15,> 100 µM
same,GI50,HL-60,> 100 µM (inactive)
same,GI50,HOP-62,> 100 µM (inactive)
same,GI50,HOP-92,41.6 µM (inactive)
same,GI50,HT-29,> 10 µM (inactive)
same,GI50,IGROV-1,> 100 µM (inactive)
same,GI50,K562,55 µM (inactive)
same,GI50,KM12,> 100 µM (inactive)
same,GI50,LOX IMVI,> 100 µM (inactive)
same,GI50,LXFL 529,65.6 µM (inactive)
same,GI50,M14,> 100 µM (inactive)
same,GI50,M19-MEL,> 100 µM (inactive)
same,GI50,MOLT-4,26.1 µM (inactive)
same,GI50,Malme-3M,> 100 µM (inactive)
same,GI50,NCI-H226,> 100 µM (inactive)
same,GI50,NCI-H23,59.6 µM (inactive)
same,GI50,NCI-H460,> 100 µM (inactive)
same,GI50,NCI-H522,67.3 µM (inactive)
same,GI50,OVCAR-3,> 100 µM (inactive)
same,GI50,OVCAR-4,51.6 µM (inactive)
same,GI50,OVCAR-5,44.7 µM (inactive)
same,GI50,OVCAR-8,> 100 µM (inactive)
same,GI50,RPMI-8226,> 100 µM (inactive)
same,GI50,RXF 393,70 µM (inactive)
same,GI50,SF-268,> 100 µM (inactive)
same,GI50,SF-295,> 100 µM (inactive)
same,GI50,SF-539,> 100 µM (inactive)
same,GI50,SK-MEL-28,> 100 µM (inactive)
same,GI50,SK-MEL-2,> 100 µM (inactive)
same,GI50,SK-MEL-5,84.7 µM (inactive)
same,GI50,SK-OV-3,> 100 µM (inactive)
same,GI50,SN12C,> 100 µM (inactive)
same,GI50,SNB-19,> 100 µM (inactive)
same,GI50,SNB-75,> 100 µM (inactive)
same,GI50,SNB-78,> 100 µM (inactive)
same,GI50,SR,37.9 µM (inactive)
same,GI50,SW-620,> 100 µM (inactive)
same,GI50,TK-10,83.8 µM (inactive)
same,GI50,U-251,> 100 µM (inactive)
same,GI50,UACC-257,13.7 µM (inactive)
same,GI50,UACC-62,> 100 µM (inactive)
same,GI50,UO-31,32.1 µM (inactive)
same,GI50,XF498,> 100 µM (inactive)
